Here are results for one compound from US11059823B2, “Small molecule inhibitors of the JAK family of kinases” (Janssen Pharmaceutica NV, priority 2016, dated 2021).

One series has as its system P-gp (MDR1). Briefly: MDCK-MDR1 permeability assay. The class given is in vitro ADME. The conditions noted are these: dog. The method, then: Permeability measurements were conducted according to the Cyprotex protocol using the MDCK-MDR1 cell line obtained from the NIH (Rockville, Md., USA). […] The cells in this assay form a cohesive sheet of a single cell layer filing the surface area of the culture dish, also known as a confluent monolayer, and on day four the test compound was added to the apical side of the membrane and the transport of the compound across the monolayer was monitored over a time period of 60 min.
Test compounds were dissolved in DMSO at a concentration of 10 mM. The dosing solutions were prepared by diluting test compound with assay buffer (Hanks Balanced Salt Solution), pH 7.4, at a final concentration of 5 μM. For assessment of apical to basolateral (“A-B”) permeability, buffer was removed from the apical compartment and replaced with test compound dosing solution with or without the permeability glycoprotein (“PgP”, “P-gP”, “Pgp” or “P-gp”) inhibitor elacridar (2 μM). For assessment of basolateral to apical (“B-A”) permeability, buffer was removed from the companion plate and replaced with test compound dosing solution. Incubations were carried out in duplicate at 37° C. in an atmosphere of 5% CO2 with a relative humidity of 95%. Each assay included the reference markers propranolol (high permeability) and prazosin (PgP substrate). After incubation for 60 minutes, apical and basolateral samples were diluted and test compounds quantified by LC/MS/MS using an 8-point calibration in the range 0.0039 to 3 μM with appropriate dilution of the samples (receiver dilution factor=1; donor and Co dilution factor=10). The permeability coefficient (Papp) for each compound was calculated from the following equation: Papp=(dQ/dt)/(C0×S), where dQ/dt is the rate of permeation of the drug across the cells, C0 is the donor compartment concentration at time zero, and S is the area of the cell monolayer.
Papp(A-B) gives an indication of permeation extent across the cells in this assay, which is envisaged to model the transcellular transport across Pgp-expressing cells, such as Pgp-expressing gastrointestinal tract cells.

The subject of a further series is IL-2 pSTAT5 (JAK1/JAK3). As to the kind of experiment: IL-2 pSTAT5 (JAK1/JAK3) cellular assay in PBMCs (AlphaLISA). The class given is cell-based. The conditions noted are these: PBMC, IL-2 5 ng/mL. How it is done:
For all compounds tested, there was measured inhibition of STAT phosphorylation with all three stimuli.
The AlphaLISA assay (based on Alpha Technology from PerkinElmer) was performed by first plating freshly thawed PBMCs (Biological Specialty Corporation) in 384-well plates at 30,000 cells per 4 μL per well in HBSS (Hanks' Balanced Salt Solution) containing 0.1% IgG (immunoglobulin G)-free, protease-free BSA (bovine serum albumin) (Jackson ImmunoResearch Cat. No. 001-000-161). The cells were then treated with 2 μL/well of compounds diluted in DMSO at half-log titrated concentrations, with a highest test concentration of 10 μM and 0.5% final DMSO concentration, for thirty minutes at 37° C. […] The cellular reactions were terminated by the addition of 2 μL/well of lysis buffer (PerkinElmer Cat. No. ALSU-PST5-A10K) followed by an incubation of five minutes at room temperature. […] Finally, the plates were read on a PerkinElmer EnVision for detection of the time-resolved fluorescence signal. The percentage of IL-2-dependent pSTAT5 inhibition was determined at the compound test concentrations; and for each compound, a dose curve was generated and the IC50 was calculated. Compound IC50 was calculated by nonlinear regression, sigmoidal dose response analysis of the half-log dilution titration curve of the compound concentration vs. Alpha signal. […]
For orientation: In Alpha technology, singlet oxygen from a donor bead excites a nearby acceptor bead.

As a reminder, the Papp A→B is how fast a substance crosses the layer from the apical side. The term Papp B→A denotes the apparent permeability from the basolateral to the apical side of a cell layer. In general, IC50 refers to the concentration needed to halve the response being measured. Read a high IC50 as a need for much substance. Take `N#CC[C@H]1CC[C@H](n2c(-c3c[nH]cn3)nc3cnc4[nH]ccc4c32)CC1` [Ex. 2, 2-((1r,4r)-4-(2-(1H-Imidazol-4-yl)imidazo[4,5-d]pyrrolo[2,3-b]pyridin-1(6H)-yl)cyclohexyl)acetonitrile]: the Papp A→B at 60 min, 5 µM in the series with P-gp (MDR1) (MDCK-MDR1, pH 7.4, apical-to-basolateral, without elacridar, 5 μM, 60 min) was found to be 1.1 ×10⁻⁶ cm/s. The compound also gave an apparent permeability from basolateral to apical (Papp B→A) at 60 min, 5 µM in the series with P-gp (MDR1) (MDCK-MDR1, pH 7.4, basolateral-to-apical, 5 μM, 60 min) of 4.8 ×10⁻⁶ cm/s. Further, in the series with P-gp (MDR1) (pH 7.4, MDCK-MDR1, 5 μM, read-out: Papp(B-A)/Papp(A-B) (efflux ratio)), the efflux ratio at 60 min, 5 µM is 4.4. Besides, in the series on IL-2 pSTAT5 (JAK1/JAK3), the concentration for half-maximal inhibition (IC50) turned out to be 9 nM.
